One assay has as its system total ATXN3 protein. As to the kind of experiment: ATXN3 Total Protein Assay (MSD). It counts as cell-based, Human. Conditions: SK-N-MC cells, 48 hours incubation, read-out: ATXN3 Potency - Protein IC50. The protocol: Human neuroblastoma SK-N-MC cells were seeded at 10,000 cells/well in 384 well plates one day prior to compound treatment. The concentrations of compounds were tested at appropriate doses ranging from 30 μM to 0.6 nM. After incubation for 48 hours, the cells were lysed with 25 μL of lysis buffer containing protease inhibitors, and total ATXN3 protein levels were assessed by Mesoscale Discovery (MSD) assay developed with one pair of anti-ATXN3 antibodies. The capture and detect antibodies were raised in mouse and rabbit respectively. Anti-rabbit MSD-ST antibody was used for secondary antibody.
ATXN3 recombinant protein was used for standards. The readouts were captured with 35 μL of MSD read buffer and multi-array 384-well high binding plates.

Assay [1] concerns ATXN3 transcripts containing exon 4. As to the kind of experiment: ATXN3 Quantitative Splicing Assay (qPCR, E4E5 primers/probe). It counts as cell-based. Conditions: Homo sapiens, SK-N-MC cells, 24 h treatment, read-out: ATXN3 Potency - Splicing E4E5 IC50 Mean. Here is the method: Human neuroblastoma SK-N-MC cells were plated in 384-well plates at 20,000 cells/well. Twenty-four hours after plating, cells were treated with compounds for 24 h at appropriate concentrations ranging from 30 μM to 0.6 nM (0.3% DMSO). Treated cells were lysed in 15 μL of lysis buffer, and cDNA was synthesized using the Fast Advanced Cells-to-Ct kit. Two μL of each cDNA was used in qPCR reactions to confirm the exon 4 skipped transcripts of ATXN3. A second set of primers/probe E4E5 was used to detect the transcripts containing exon 4. The third set of primers/probe E8E9 was used to detect total gene level of ATXN3. The qPCR reactions were prepared in 384-well plates in 10 μL volume, using TaqMan™ Fast Advanced Master Mix with primers and probes shown in the table below. Reactions were run in a Quant Studio 6 qPCR instrument with default settings.
The primers and probes are listed below in Table 3.

Consider `Cc1c(C[C@H](C)N)cc2c(NCc3cccs3)cc(Cl)nn12` [Compound 1, (S)-6-(2-aminopropyl)-2-chloro-7-methyl-N-(thiophen-2-ylmethyl)pyrrolo[1,2-b]pyridazin-4-amine], for which the IC50 (in the assay on total ATXN3 protein; in assay [1]) was 101 to 500 nM throughout.
With `C[C@H](N)Cc1cc2c(NCc3cccs3)cc(Cl)nn2c1Cl` [Compound 2, (S)-6-(2-aminopropyl)-2,7-dichloro-N-(thiophen-2-ylmethyl)pyrrolo[1,2-b]pyridazin-4-amine], the IC50 in assay [1] is 0.01 to 100 nM.
Same read-out and setting: with `COC[C@H](N)Cc1cc2c(NCc3cccs3)cc(Cl)nn2c1C` [Compound 3, (R)-6-(2-amino-3-methoxypropyl)-2-chloro-7-methyl-N-(thiophen-2-ylmethyl)pyrrolo[1,2-b]pyridazin-4-amine] the figure was 501 to 5000 nM; with `C[C@H](F)[C@H](N)Cc1cc2c(NCc3cccs3)cc(Cl)nn2c1` [Compound 4, 6-((2R,3S)-2-amino-3-fluorobutyl)-2-chloro-N-(thiophen-2-ylmethyl)pyrrolo[1,2-b]pyridazin-4-amine], 101 to 500 nM.
Turning to `Cc1c(C[C@@H](N)CF)cc2c(NCc3cccs3)cc(Cl)nn12` [Compound 5, (R)-6-(2-amino-3-fluoropropyl)-2-chloro-7-methyl-N-(thiophen-2-ylmethyl)pyrrolo[1,2-b]pyridazin-4-amine], the IC50 is 101 to 500 nM in the assay with total ATXN3 protein and 501 to 5000 nM in assay [1].
For `Cc1c(C[C@@H](N)[C@H](C)F)cc2c(NCc3cccs3)cc(Cl)nn12` [Compound 6, 6-((2R,3S)-2-amino-3-fluorobutyl)-2-chloro-7-methyl-N-(thiophen-2-ylmethyl)pyrrolo[1,2-b]pyridazin-4-amine] the same measures were 101 to 500 nM and 101 to 500 nM.
Take `N[C@@H](CF)Cc1cc2c(NCc3cccs3)cc(Cl)nn2c1` [Compound 7, (R)-6-(2-amino-3-fluoropropyl)-2-chloro-N-(thiophen-2-ylmethyl)pyrrolo[1,2-b]pyridazin-4-amine]: the IC50 in assay [1] lay within 101 to 500 nM.
On the same count and under the same terms, to `Cc1c(C[C@@H](N)CO)cc2c(NCc3cccs3)cc(Cl)nn12` [Compound 8, (R)-2-amino-3-(2-chloro-7-methyl-4-((thiophen-2-ylmethyl)amino)pyrrolo[1,2-b]pyridazin-6-yl) propan-1-ol] belongs 0.01 to 100 nM; to `N[C@@H](COC(F)F)Cc1cc2c(NCc3cccs3)cc(Cl)nn2c1Cl` [Compound 9, (R)-6-(2-amino-3-(difluoromethoxy)propyl)-2,7-dichloro-N-(thiophen-2-ylmethyl)pyrrolo[1,2-b]pyridazin-4-amine], 0.01 to 100 nM.
Take `N[C@@H](CF)Cc1cc2c(NCc3cccs3)cc(Cl)nn2c1Cl` [Compound 10, (R)-6-(2-amino-3-fluoropropyl)-2,7-dichloro-N-(thiophen-2-ylmethyl)pyrrolo[1,2-b]pyridazin-4-amine]: the half-inhibitory concentration (IC50) in assay [1] was 0.01 to 100 nM.
`C[C@H](F)[C@H](N)Cc1cc2c(NCc3cccs3)cc(Cl)nn2c1Cl` [Compound 11]: the half-inhibitory concentration (IC50) in assay [1] lay within 0.01 to 100 nM.

For the origin of these results see US20260217720A1, “COMPOSITIONS USEFUL FOR MODULATING SPLICING” (Skyhawk Therapeutics, Inc., priority 2023, published 2026).
